Results reported in US8937078B2, “Quinazolinones as prolyl hydroxylase inhibitors” (Janssen Pharmaceutica NV, priority 2009, dated 2015).

Columns and labels:
[1] = tested on: Hep-3B cells; experiment: Cellular assay: erythropoietin secretion in Hep-3B cells; type: cell-based, human; conditions: Homo sapiens, Hep3B, 100 μM compound, 24 hours, percent of EPO secretion relative to assay control compound 7-[(4-Chloro-phenyl)-(5-methyl-isoxazol-3-ylamino)-methyl]-quinolin-8-ol, read-out: Cellular % EPO Stimulation
Method in brief: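 Hep-3B cells in DMEM with 10% FBS, treated 24 h after plating with compounds at 100 μM final for a further 24 h. Secreted EPO in supernatant measured by MSD electrochemiluminescence sandwich immunoassay with anti-EPO detection antibody.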

[2] = target: T1, human PHD2 (PHD2181-417) (Homo sapiens, UniProt Q9GZT9); experiment: PHD enzymatic assay ([14C]-succinic acid production); type: biochemical; conditions: PHD2181-417, HIF-1α peptide 10 μM, average of results; read-out: Enzyme pIC50 (converted)
T1 construct: Smt (SUMO) tag (cleaved yes); made in house; host or cells: E. coli BL21 (pBAD vector)
Method in brief: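 Activity measured as [14C]-succinic acid formed from [5-14C]-2-oxoglutarate over 10 minutes, with peptide substrate at 10 μM, in Tris-HCl pH 7.5 buffer containing catalase, DTT and ascorbate. Unreacted oxoglutarate removed by DNP derivatisation; supernatant beta-counted.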

T1 sequence (Q9GZT9 181-417): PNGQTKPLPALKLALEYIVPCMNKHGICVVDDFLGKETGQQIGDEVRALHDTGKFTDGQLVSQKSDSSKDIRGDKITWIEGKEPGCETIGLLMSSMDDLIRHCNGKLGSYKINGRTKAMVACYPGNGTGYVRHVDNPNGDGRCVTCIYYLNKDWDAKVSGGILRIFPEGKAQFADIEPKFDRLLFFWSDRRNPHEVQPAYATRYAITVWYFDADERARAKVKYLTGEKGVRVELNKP

Row | IC50 [2] [nM] | Compound | Emax at 100 µM [1] [%]
1 | 20 | N#Cc1cccc(CNc2ccc3nc(-n4cc(C(=O)O)cn4)[nH]c(=O)c3c2)c1 [Example 178, 1-[6-(3-Cyano-benzylamino)-4-oxo-3,4-dihydro-quinazolin-2-yl]-1H-pyrazole-4-carboxylic acid] | 12
2 | 39.8 | O=C(O)c1cnn(-c2nc3ccc(N4CCOCC4)cc3c(=O)[nH]2)c1 [Example 107, 1-(6-morpholin-4-yl-4-oxo-3,4-dihydro-quinazolin-2-yl)-1H-pyrazole-4-carboxylic acid] | 45
3 | 20 | Cc1cccc(C)c1OCc1ccc2nc(-n3cc(C(=O)O)cn3)[nH]c(=O)c2c1 [Example 75, 1-[6-(2,6-Dimethyl-phenoxymethyl)-4-oxo-3,4-dihydro-quinazolin-2-yl]-1H-pyrazole-4-carboxylic acid] | 20
4 | 31.6 | CSc1ccc2nc(-n3cc(C(=O)O)cn3)[nH]c(=O)c2c1 [Example 155, 1-(6-Methylsulfanyl-4-oxo-3,4-dihydro-quinazolin-2-yl)-1H-pyrazole-4-carboxylic acid] | 40
5 | 63.1 | O=C(O)c1cnn(-c2nc3ccccc3c(=O)[nH]2)c1 [Example 126, 1-(4-Oxo-3,4-dihydro-quinazolin-2-yl)-1H-pyrazole-4-carboxylic acid] | 9
6 | 15.8 | Cc1ccc(CNc2ccc3nc(-n4cc(C(=O)O)cn4)[nH]c(=O)c3c2)cc1 [Example 183, 1-[6-(4-methyl-benzylamino)-4-oxo-3,4-dihydro-quinazolin-2-yl]-1H-pyrazole-4-carboxylic acid] | 89
7 | 31.6 | COc1ccc(Sc2cc3c(=O)nc(-n4cc(C(=O)O)cn4)[nH]c3cc2Cl)cc1OC [Example 26, 1-[7-Chloro-6-(3,4-dimethoxy-phenylsulfanyl)-4-oxo-1,4-dihydro-quinazolin-2-yl]-1H-pyrazole-4-carboxylic acid] | 55
8 | 25.1 | COc1cccc(-c2ccc3nc(-n4cc(C(=O)O)cn4)[nH]c(=O)c3c2)c1 [Example 199, 1-[6-(3-Methoxy-phenyl)-4-oxo-3,4-dihydro-quinazolin-2-yl]-1H-pyrazole-4-carboxylic acid] | 119
9 | 39.8 | O=C(O)c1cnn(-c2nc3ccc(NCc4c(F)cccc4F)cc3c(=O)[nH]2)c1 [Example 176, 1-[6-(2,6-Difluoro-benzylamino)-4-oxo-3,4-dihydro-quinazolin-2-yl]-1H-pyrazole-4-carboxylic acid] | 26
10 | 158 | O=C(O)c1cnn(-c2nc3cccc(Cl)c3c(=O)[nH]2)c1 [Example 6, 1-(5-Chloro-4-oxo-3,4-dihydro-quinazolin-2-yl)-1H-pyrazole-4-carboxylic acid] | 19
11 | 158 | CN(C)c1ccc2c(=O)[nH]c(-n3cc(C(=O)O)cn3)nc2c1 [Example 150, 1-(7-Dimethylamino-4-oxo-3,4-dihydro-quinazolin-2-yl)-1H-pyrazole-4-carboxylic acid] | 24
12 | 20 | O=C(O)c1cnn(-c2nc3cc(F)c(Oc4cccc(F)c4)cc3c(=O)[nH]2)c1 [Example 56, 1-[7-Fluoro-6-(3-fluoro-phenoxy)-4-oxo-3,4-dihydro-quinazolin-2-yl]-1H-pyrazole-4-carboxylic acid] | 68
13 | 398 | Cc1cc(C)c2c(=O)[nH]c(-n3cc(C(=O)O)cn3)nc2c1 [Example 145, 1-(5,7-Dimethyl-4-oxo-3,4-dihydro-quinazolin-2-yl)-1H-pyrazole-4-carboxylic acid] | 16
14 | 39.8 | CSc1cc2c(=O)[nH]c(-n3cc(C(=O)O)cn3)nc2cc1Cl [Example 158, 1-(7-Chloro-6-methylsulfanyl-4-oxo-3,4-dihydro-quinazolin-2-yl)-1H-pyrazole-4-carboxylic acid] | 15
15 | 31.6 | CS(=O)(=O)Nc1ccc2nc(-n3cc(C(=O)O)cn3)[nH]c(=O)c2c1 [Example 170, 1-(6-Methanesulfonylamino-4-oxo-3,4-dihydro-quinazolin-2-yl)-1H-pyrazole-4-carboxylic acid] | 15
16 | 20 | COc1cc(Oc2ccc3nc(-n4cc(C(=O)O)cn4)[nH]c(=O)c3c2)cc(OC)c1OC [Example 28, 1-[4-Oxo-6-(3,4,5-trimethoxy-phenoxy)-3,4-dihydro-quinazolin-2-yl]-1H-pyrazole-4-carboxylic acid] | 9
17 | 79.4 | Cc1cccc2c(=O)[nH]c(-n3cc(C(=O)O)cn3)nc12 [Example 9, 1-(8-Methyl-4-oxo-3,4-dihydro-quinazolin-2-yl)-1H-pyrazole-4-carboxylic acid] | 49
18 | 126 | O=C(O)c1cnn(-c2nc3cc(OC(F)(F)F)ccc3c(=O)[nH]2)c1 [Example 148, 1-(4-Oxo-7-trifluoromethoxy-3,4-dihydro-quinazolin-2-yl)-1H-pyrazole-4-carboxylic acid] | 10
19 | 15.8 | O=C(O)c1cnn(-c2nc3ccc(-c4cccc5c4OCCO5)cc3c(=O)[nH]2)c1 [Example 204, 1-[6-(2,3-Dihydro-benzo[1,4]dioxin-5-yl)-4-oxo-3,4-dihydro-quinazolin-2-yl]-1H-pyrazole-4-carboxylic acid] | 111
20 | 20 | O=C(O)c1cnn(-c2nc3ccc(OC4CCCCC4)cc3c(=O)[nH]2)c1 [Example 102, 1-(6-cyclohexyloxy-4-oxo-3,4-dihydro-quinazolin-2-yl)-1H-pyrazole-4-carboxylic acid] | 59
21 | 398 | CC(C)Oc1ccc2c(=O)[nH]c(-n3cc(C(=O)O)cn3)nc2c1 [Example 149, 1-(7-Isopropoxy-4-oxo-3,4-dihydro-quinazolin-2-yl)-1H-pyrazole-4-carboxylic acid] | 9
22 | 35.5 | O=C(O)c1cnn(-c2nc3cc4c(cc3c(=O)[nH]2)OCCO4)c1 [Example 139, 1-(4-Oxo-3,4,7,8-tetrahydro-[1,4]dioxino[2,3-g]quinazolin-2-yl)-1H-pyrazole-4-carboxylic acid] | 15
23 | 20 | O=C(O)c1cnn(-c2nc3ccc(NCc4ccccc4Cl)cc3c(=O)[nH]2)c1 [Example 174, 1-[6-(2-Chloro-benzylamino)-4-oxo-3,4-dihydro-quinazolin-2-yl]-1H-pyrazole-4-carboxylic acid] | 24
24 | 31.6 | C#Cc1ccc2nc(-n3cc(C(=O)O)cn3)[nH]c(=O)c2c1 [Example 76, 1-(6-Ethynyl-4-oxo-3,4-dihydro-quinazolin-2-yl)-1H-pyrazole-4-carboxylic acid] | 16
25 | 31.6 | Cc1cccc(C)c1Oc1cc2c(=O)[nH]c(-n3cc(C(=O)O)cn3)nc2cc1Cl [Example 49, 1-[7-Chloro-6-(2,6-dimethyl-phenoxy)-4-oxo-3,4-dihydro-quinazolin-2-yl]-1H-pyrazole-4-carboxylic acid] | 55
26 | 25.1 | CCNc1ccc2nc(-n3cc(C(=O)O)cn3)[nH]c(=O)c2c1 [Example 172, 1-(6-Ethylamino-4-oxo-3,4-dihydro-quinazolin-2-yl)-1H-pyrazole-4-carboxylic acid] | 20
